Data: US8592448B2 (OSI Pharmaceuticals, LLC, priority 2008, dated 2013)

Key:
MKN45 cells = test: MKN45 cell proliferation assay (CellTiter-Glo); assay type: cell-based; details: Homo sapiens, MKN-45, 72 h, MKN45 cell line, 3 days incubation, at least duplicate experiments, read-out: Prolif. IC50
Procedure, shortened: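 MKN45 cells (5000/well, RPMI + 10% FCS) plated overnight, then exposed to 8-point dilution series, typically 10 μM to 0.6 nM, in 0.1% DMSO for 3 days at 37 °C. CellTiter-Glo luminescence as % of DMSO control; IC50 from four-parameter fit, at least duplicate experiments.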

phosphorylated c-MET = molecular target: T1, phosphorylated c-MET (Homo sapiens, UniProt P08581); test: c-MET cell mechanistic assay (phosphorylated c-MET in MKN45 cells); assay type: cell-based; details: MKN45 cell line, four hours incubation, phosphorylated c-MET levels, at least duplicate experiments; read-out: Met mech IC50
T1 construct: endogenous in cells; host or cells: MKN45
T1 sequence (P08581 25-1390): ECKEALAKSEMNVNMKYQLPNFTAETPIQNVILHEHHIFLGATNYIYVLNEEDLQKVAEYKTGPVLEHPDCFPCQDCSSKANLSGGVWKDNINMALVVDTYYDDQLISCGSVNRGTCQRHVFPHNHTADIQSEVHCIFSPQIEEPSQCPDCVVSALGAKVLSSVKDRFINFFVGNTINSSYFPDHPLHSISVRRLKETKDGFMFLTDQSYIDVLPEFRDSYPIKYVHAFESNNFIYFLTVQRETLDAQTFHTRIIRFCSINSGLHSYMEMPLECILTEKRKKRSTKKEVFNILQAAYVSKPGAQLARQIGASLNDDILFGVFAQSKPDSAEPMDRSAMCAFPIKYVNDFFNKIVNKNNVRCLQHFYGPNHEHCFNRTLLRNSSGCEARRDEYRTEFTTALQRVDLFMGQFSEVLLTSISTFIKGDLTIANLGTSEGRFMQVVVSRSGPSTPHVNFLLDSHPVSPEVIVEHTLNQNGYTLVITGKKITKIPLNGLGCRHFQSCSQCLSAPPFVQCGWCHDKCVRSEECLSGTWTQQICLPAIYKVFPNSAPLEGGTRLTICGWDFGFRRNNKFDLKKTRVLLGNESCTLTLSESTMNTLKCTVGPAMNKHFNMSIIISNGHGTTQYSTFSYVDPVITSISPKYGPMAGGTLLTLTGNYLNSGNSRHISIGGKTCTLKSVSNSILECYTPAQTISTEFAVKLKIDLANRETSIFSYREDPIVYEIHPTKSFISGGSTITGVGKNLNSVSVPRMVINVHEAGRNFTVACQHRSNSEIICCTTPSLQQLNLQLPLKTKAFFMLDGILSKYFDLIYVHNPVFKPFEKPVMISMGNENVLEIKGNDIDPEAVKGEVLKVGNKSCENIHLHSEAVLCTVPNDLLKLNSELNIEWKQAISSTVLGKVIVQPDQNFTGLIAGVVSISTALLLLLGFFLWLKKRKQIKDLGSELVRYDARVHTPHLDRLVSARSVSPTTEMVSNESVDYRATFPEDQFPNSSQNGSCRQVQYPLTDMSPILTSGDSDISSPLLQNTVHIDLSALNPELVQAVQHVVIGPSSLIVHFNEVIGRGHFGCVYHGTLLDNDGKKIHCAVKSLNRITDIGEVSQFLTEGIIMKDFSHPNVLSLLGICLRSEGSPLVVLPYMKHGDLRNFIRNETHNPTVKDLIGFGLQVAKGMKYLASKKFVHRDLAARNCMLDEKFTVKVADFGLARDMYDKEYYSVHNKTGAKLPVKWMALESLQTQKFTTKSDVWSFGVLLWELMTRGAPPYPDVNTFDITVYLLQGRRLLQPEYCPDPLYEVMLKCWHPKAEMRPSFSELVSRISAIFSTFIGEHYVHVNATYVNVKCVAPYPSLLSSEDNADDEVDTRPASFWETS
Procedure, shortened: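 MKN45 cells were treated 4 h at 37 °C with a 6-point dilution series (typically 10 μM to 3 nM; final 0.5% DMSO). Phospho-c-MET (pY1230/1234/1235) in lysates was measured by capture ELISA with HRP read-out at 450 nm. IC50 came from a four-parameter fit of percent of DMSO control.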

Structure (SMILES)	IC50 (MKN45 cells)	IC50 (phosphorylated c-MET)
CC(c1c(Cl)ccc(F)c1Cl)c1c[nH]c2ncc(-c3cnn(C(C)(C)C(N)=O)c3)cc12 (stereo not drawn) [Example 64, 2-(4-{3-[1-(2,6-Dichloro-3-fluorophenyl)ethyl]-1H-pyrrolo[2,3-b]pyridin-5-yl}-pyrazol-1-yl)-isobutyramide]	100 to 1000 nM	≤ 100 nM
CC(c1c(Cl)ccc(F)c1Cl)c1c[nH]c2ncc(-c3cnn(C(C)(C)CO)c3)cc12 (stereo not drawn) [Example 65, 2-(4-{3-[1-(2,6-Dichloro-3-fluorophenyl)ethyl]-1H-pyrrolo[2,3-b]pyridin-5-yl}-pyrazol-1-yl)-2-methylpropan-1-ol]	100 to 1000 nM	≤ 100 nM
C[C@H](c1c(Cl)ccc(F)c1Cl)c1c[nH]c2ncc(C3=CCCN(C(N)=O)C3)cc12 [Example 67, 5-{3-[(S)-1-(2,6-Dichloro-3-fluorophenyl)ethyl]-1H-pyrrolo[2,3-b]pyridin-5-yl}-3,6-dihydro-2H-pyridine-1-carboxamide]	100 to 1000 nM	≤ 100 nM
C[C@H](c1c(Cl)ccc(F)c1Cl)c1c[nH]c2ncc(-c3ccc(C(=O)N4CCNCC4)cc3)cc12 [Example 69, (4-{3-[(S)-1-(2,6-Dichloro-3-fluorophenyl)ethyl]-1H-pyrrolo[2,3-b]pyridin-5-yl}phenyl)piperazin-1-ylmethanone]	100 to 1000 nM	≤ 100 nM
C[C@H](c1c(Cl)ccc(F)c1Cl)c1c[nH]c2ncc(-c3cnn(C4CCN(C(N)=O)CC4)c3)cc12 [Example 72, 4-(4-{3-[(S)-1-(2,6-Dichloro-3-fluorophenyl)ethyl]-1H-pyrrolo[2,3-b]pyridin-5-yl}-pyrazol-1-yl)-piperidine-1-carboxamide]	≤ 100 nM	≤ 100 nM
C[C@H](c1c(Cl)ccc(F)c1Cl)c1c[nH]c2ncc(-c3cnn(C4CCN(S(C)(=O)=O)CC4)c3)cc12 [Example 73, 3-[(S)-1-(2,6-Dichloro-3-fluorophenyl)ethyl]-5-[1-(1-methane-sulfonylpiperidin-4-yl)-1H-pyrazol-4-yl]-1H-pyrrolo[2,3-b]pyridine]	≤ 100 nM	≤ 100 nM
CNC(=O)Cn1cc(-c2cnc3[nH]cc([C@H](C)c4c(Cl)ccc(F)c4Cl)c3c2)cn1 [Example 76, 2-(4-{3-[(S)-1-(2,6-Dichloro-3-fluorophenyl)ethyl]-1H-pyrrolo[2,3-b]-pyridin-5-yl}-pyrazol-1-yl)-N-methylacetamide]	≤ 100 nM	≤ 100 nM
C[C@H](c1c(Cl)ccc(F)c1Cl)c1c[nH]c2ncc(-c3cnn(CC(N)=O)c3)cc12 [Example 77, 2-(4-{3-[(S)-1-(2,6-Dichloro-3-fluorophenyl)ethyl]-1H-pyrrolo[2,3-b]-pyridin-5-yl}-pyrazol-1-yl)-acetamide]	≤ 100 nM	≤ 100 nM
C[C@H](c1c(Cl)ccc(F)c1Cl)c1c[nH]c2ncc(-c3cnn(CC(=O)N4CCOCC4)c3)cc12 [Example 78, 2-(4-{3-[(S)-1-(2,6-Dichloro-3-fluorophenyl)ethyl]-1H-pyrrolo[2,3-b]pyridin-5-yl}-pyrazol-1-yl)-1-morpholin-4-ylethanone]	≤ 100 nM	≤ 100 nM
C[C@H](c1c(Cl)ccc(F)c1Cl)c1c[nH]c2ncc(-c3cnn(CC(=O)N4CCN(C)CC4)c3)cc12 [Example 79, 2-(4-{3-[(S)-1-(2,6-Dichloro-3-fluorophenyl)ethyl]-1H-pyrrolo[2,3-b]-pyridin-5-yl}-pyrazol-1-yl)-1-(4-methylpiperazin-1-yl)ethanone]	≤ 100 nM	≤ 100 nM
C[C@H](c1c(Cl)ccc(F)c1Cl)c1c[nH]c2ncc(-c3cnn(C4CCNCC4)c3)cc12 [Example 80, 3-[(S)-1-(2,6-Dichloro-3-fluorophenyl)ethyl]-5-(1-piperidin-4-yl-1H-pyrazol-4-yl)-1H-pyrrolo[2,3-b]pyridine]	≤ 100 nM	≤ 100 nM
C[C@@H](c1c(Cl)ccc(F)c1Cl)c1c[nH]c2ncc(-c3cnn(C4CCNCC4)c3)cc12 [Example 81, 3-[(R)-1-(2,6-Dichloro-3-fluorophenyl)ethyl]-5-(1-piperidin-4-yl-1H-pyrazol-4-yl)-1H-pyrrolo[2,3-b]pyridine]	100 to 1000 nM	100 to 1000 nM
